Experimental data as given in patent US9212182B2, “Bicyclic sulfonamide compounds as sodium channel inhibitors” (AMGEN INC., priority 2013, dated 2015).

The compounds below were run against Nav 1.7 (Homo sapiens (Human), UniProt Q15858) (assay: in-vitro Nav 1.7 PX (IC50)). Conditions: not given.
Type: cell-based

Sequence of Nav 1.7 (Q15858 whole entry): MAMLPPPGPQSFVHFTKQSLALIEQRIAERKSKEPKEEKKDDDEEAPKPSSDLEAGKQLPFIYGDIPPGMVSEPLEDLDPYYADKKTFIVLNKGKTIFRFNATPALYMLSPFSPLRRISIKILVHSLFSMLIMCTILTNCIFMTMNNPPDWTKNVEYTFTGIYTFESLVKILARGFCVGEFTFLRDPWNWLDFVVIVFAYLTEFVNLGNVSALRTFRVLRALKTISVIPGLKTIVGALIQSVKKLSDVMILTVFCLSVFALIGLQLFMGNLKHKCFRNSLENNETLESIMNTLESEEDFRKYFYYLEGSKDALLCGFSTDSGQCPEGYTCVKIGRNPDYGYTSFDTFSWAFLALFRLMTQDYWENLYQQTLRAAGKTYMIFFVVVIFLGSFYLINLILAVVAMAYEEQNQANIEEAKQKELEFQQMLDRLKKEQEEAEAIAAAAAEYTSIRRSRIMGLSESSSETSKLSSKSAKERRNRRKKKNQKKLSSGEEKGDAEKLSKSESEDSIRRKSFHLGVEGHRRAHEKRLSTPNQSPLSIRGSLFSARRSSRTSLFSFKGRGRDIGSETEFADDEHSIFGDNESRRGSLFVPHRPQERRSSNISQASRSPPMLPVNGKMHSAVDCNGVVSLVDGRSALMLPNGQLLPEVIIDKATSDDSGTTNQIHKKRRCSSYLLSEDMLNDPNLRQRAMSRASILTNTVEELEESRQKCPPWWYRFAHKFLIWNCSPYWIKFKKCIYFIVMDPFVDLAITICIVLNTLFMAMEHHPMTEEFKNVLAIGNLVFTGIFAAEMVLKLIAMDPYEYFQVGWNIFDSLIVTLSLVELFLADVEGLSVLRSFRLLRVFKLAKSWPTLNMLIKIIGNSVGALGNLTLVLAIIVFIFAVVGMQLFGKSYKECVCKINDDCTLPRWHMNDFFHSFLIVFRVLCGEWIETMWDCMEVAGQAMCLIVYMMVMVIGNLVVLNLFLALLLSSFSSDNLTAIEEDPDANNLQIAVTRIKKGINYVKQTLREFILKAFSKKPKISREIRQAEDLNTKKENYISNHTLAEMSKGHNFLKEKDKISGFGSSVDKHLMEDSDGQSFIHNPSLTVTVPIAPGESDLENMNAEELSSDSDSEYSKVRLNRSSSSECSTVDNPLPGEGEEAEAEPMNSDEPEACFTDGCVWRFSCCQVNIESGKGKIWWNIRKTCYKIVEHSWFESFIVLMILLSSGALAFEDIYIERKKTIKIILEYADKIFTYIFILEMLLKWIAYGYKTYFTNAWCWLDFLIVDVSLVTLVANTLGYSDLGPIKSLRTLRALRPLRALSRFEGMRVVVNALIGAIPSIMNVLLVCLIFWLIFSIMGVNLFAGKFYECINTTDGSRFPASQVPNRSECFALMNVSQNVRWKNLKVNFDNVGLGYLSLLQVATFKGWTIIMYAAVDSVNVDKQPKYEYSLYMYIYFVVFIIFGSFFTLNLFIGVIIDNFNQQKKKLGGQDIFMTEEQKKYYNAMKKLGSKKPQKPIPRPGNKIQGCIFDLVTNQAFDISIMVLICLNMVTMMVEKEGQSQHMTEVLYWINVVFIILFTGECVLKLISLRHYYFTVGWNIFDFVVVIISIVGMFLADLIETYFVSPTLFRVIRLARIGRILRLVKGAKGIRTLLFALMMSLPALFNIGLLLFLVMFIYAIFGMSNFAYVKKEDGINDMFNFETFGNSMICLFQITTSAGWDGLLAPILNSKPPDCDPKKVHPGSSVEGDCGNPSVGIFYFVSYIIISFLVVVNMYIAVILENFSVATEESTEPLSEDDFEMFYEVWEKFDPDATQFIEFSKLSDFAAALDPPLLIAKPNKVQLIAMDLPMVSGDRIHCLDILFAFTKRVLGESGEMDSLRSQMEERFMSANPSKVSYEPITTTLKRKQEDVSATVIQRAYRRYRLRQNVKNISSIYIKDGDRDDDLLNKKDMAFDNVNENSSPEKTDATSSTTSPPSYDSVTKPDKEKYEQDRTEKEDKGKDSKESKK

| SMILES | IC50 |
| --- | --- |
| COc1cc(C[C@H]2CCOC2)c(F)cc1-n1c(=O)ccc2cc(S(=O)(=O)Nc3ccon3)ccc21 (atropisomer, axis not shown; (P)) [Example 1234, (P)-1-(5-fluoro-2-methoxy-4-((3S)-tetrahydro-3-furanylmethyl)phenyl)-N-3-isoxazolyl-2-oxo-1,2-dihydro-6-quinolinesulfonamide] | 1140 nM |
| COc1cc(-c2cc(F)cc(Cl)c2)c(Cl)cc1-n1c(=O)ccc2cc(S(=O)(=O)Nc3ccon3)ccc21 (atropisomer, axis not shown; (M)) [Example 462, (M)-1-(2,3′-dichloro-5′-fluoro-5-methoxy-[1,1′-biphenyl]-4-yl)-N-(isoxazol-3-yl)-2-oxo-1,2-dihydroquinoline-6-sulfonamide] | 193 nM |
| COc1cc(C#CC2(O)CCCC2)c(F)cc1-n1c(=O)ccc2cc(S(=O)(=O)Nc3ccon3)ccc21 (atropisomer, axis not shown; (P)) [Example 1233, (P)-1-(5-fluoro-4-((1-hydroxycyclopentyl)ethynyl)-2-methoxyphenyl)-N-3-isoxazolyl-2-oxo-1,2-dihydro-6-quinolinesulfonamide] | 631 nM |
| COc1cc(-c2ccc(Cl)c(C)c2)ccc1-n1c(=O)cnc2cc(S(=O)(=O)Nc3ccon3)ccc21 [Example 1195, 1-(4′-chloro-3-methoxy-3′-methyl-4-biphenylyl)-N-3-isoxazolyl-2-oxo-1,2-dihydro-6-quinoxalinesulfonamide] | 54 nM |
| COc1cc(-c2ccc(Cl)c(C)c2)c(Cl)cc1-n1c(=O)ccc2cc(S(=O)(=O)Nc3ccon3)ccc21 (atropisomer, axis not shown; (P)) [Example 471, (P)-1-(2,4′-dichloro-5-methoxy-3′-methyl-[1,1′-biphenyl]-4-yl)-N-(isoxazol-3-yl)-2-oxo-1,2-dihydroquinoline-6-sulfonamide] | 8 nM |
| COc1cc(-c2cccc(OC(C)C)c2)ccc1-n1c(=O)ccc2cc(S(=O)(=O)Nc3cc(C)ncn3)ccc21 (atropisomer, axis not shown; (P)) [Example 1205, (P)-1-(3-methoxy-3′-(1-methylethoxy)-4-biphenylyl)-N-(6-methyl-4-pyrimidinyl)-2-oxo-1,2-dihydro-6-quinolinesulfonamide] | 290 nM |

Next, values leading:

| IC50 | SMILES |
| --- | --- |
| > 10000 nM | COc1cc(-c2cccc(C)c2)ccc1-n1c(=O)ccc2cc(S(=O)(=O)Nc3ccon3)ccc21 (atropisomer, axis not shown; (M)) [Example 583, (M)-N-3-isoxazolyl-1-(3-methoxy-3′-methyl-4-biphenylyl)-2-oxo-1,2-dihydro-6-quinolinesulfonamide] |
| 32300 nM | COc1ccc(-c2cccc(F)c2)cc1-n1c(=O)ccc2cc(S(=O)(=O)Nc3ccon3)ccc21 (atropisomer, axis not shown; (M)) [Example 484, (M)-1-(3′-fluoro-4-methoxy-3-biphenylyl)-N-3-isoxazolyl-2-oxo-1,2-dihydro-6-quinolinesulfonamide] |
| 75 nM | COc1cc(-c2cccc(C(F)(F)F)c2)c(F)cc1-n1c(=O)ccc2cc(S(=O)(=O)Nc3cccc(F)n3)ccc21 (atropisomer, axis not shown; (P)) [Example 1209, (P)-1-(2-fluoro-5-methoxy-3′-(trifluoromethyl)-4-biphenylyl)-N-(6-fluoro-2-pyridinyl)-2-oxo-1,2-dihydro-6-quinolinesulfonamide] |

Same assay, conditions: in-vitro Nav 1.7 PX data

| SMILES | IC50 |
| --- | --- |
| COc1ccc(-c2cccc(F)c2)cc1-n1c(=O)ccc2cc(S(=O)(=O)Nc3ncccn3)ccc21 (atropisomer, axis not shown; (P)) [Example 606, (P)-1-(3′-fluoro-4-methoxy-3-biphenylyl)-2-oxo-N-2-pyrimidinyl-1,2-dihydro-6-quinolinesulfonamide] | 159 nM |
| COc1ccc(-c2ccc(Cl)cc2)cc1-n1c(=O)ccc2cc(S(=O)(=O)Nc3ccon3)ccc21 [Example 857, 1-(4′-chloro-4-methoxy-3-biphenylyl)-N-3-isoxazolyl-2-oxo-1,2-dihydro-6-quinolinesulfonamide] | 20 nM |
| COc1cc(CC2CCCCC2)c(F)cc1-n1c(=O)ccc2cc(S(=O)(=O)Nc3cccnn3)ccc21 [Example 1112, 1-(4-(cyclohexylmethyl)-5-fluoro-2-methoxyphenyl)-2-oxo-N-3-pyridazinyl-1,2-dihydro-6-quinolinesulfonamide] | 25 nM |
| COc1cc(-c2cccc(Cl)c2C)ccc1-n1c(=O)ccc2cc(S(=O)(=O)Nc3ccon3)ccc21 [Example 1028, 1-(3′-chloro-3-methoxy-2′-methyl-4-biphenylyl)-N-3-isoxazolyl-2-oxo-1,2-dihydro-6-quinolinesulfonamide] | 18 nM |
| COc1cc(C2CCC(F)(F)CC2)c(F)cc1-n1c(=O)ccc2cc(S(=O)(=O)Nc3ccon3)ccc21 [Example 1102, 1-(4-(4,4-difluorocyclohexyl)-5-fluoro-2-methoxyphenyl)-N-3-isoxazolyl-2-oxo-1,2-dihydro-6-quinolinesulfonamide] | 237 nM |
| COc1cc(F)cc(-c2ccc(-n3c(=O)ccc4cc(S(=O)(=O)Nc5cccnn5)ccc43)c(OC)c2)c1 [Example 997, 1-(3′-fluoro-3,5′-dimethoxy-4-biphenylyl)-2-oxo-N-3-pyridazinyl-1,2-dihydro-6-quinolinesulfonamide] | 66 nM |
| COc1ccc(-c2cccc(Cl)c2C)cc1-n1c(=O)ccc2cc(S(=O)(=O)Nc3ccon3)ccc21 [Example 891, 1-(3′-chloro-4-methoxy-2′-methyl-3-biphenylyl)-N-3-isoxazolyl-2-oxo-1,2-dihydro-6-quinolinesulfonamide] | 20 nM |
| COc1ccc(-c2cc(F)cc(Cl)c2)cc1-n1c(=O)ccc2cc(S(=O)(=O)Nc3ccncn3)ccc21 [Example 610, 1-(3′-chloro-5′-fluoro-4-methoxy-3-biphenylyl)-2-oxo-N-4-pyrimidinyl-1,2-dihydro-6-quinolinesulfonamide] | 13 nM |
| COc1ccnc(-c2cc(OC)c(-n3c(=O)ccc4cc(S(=O)(=O)Nc5ccon5)ccc43)cc2F)n1 [Example 808, 1-(5-fluoro-2-methoxy-4-(4-methoxy-2-pyrimidinyl)phenyl)-N-3-isoxazolyl-2-oxo-1,2-dihydro-6-quinolinesulfonamide] | 3070 nM |

The remaining lines, values ahead:

| IC50 | SMILES |
| --- | --- |
| 31 nM | COc1cc(-c2cccc(C(F)(F)F)c2)ccc1-n1c(=O)ccc2cc(S(=O)(=O)Nc3ncc(F)cn3)ccc21 [Example 917, N-(5-fluoro-2-pyrimidinyl)-1-(3-methoxy-3′-(trifluoromethyl)-4-biphenylyl)-2-oxo-1,2-dihydro-6-quinolinesulfonamide] |
| 14 nM | COc1cc(F)cc(-c2cc(OC)c(-n3c(=O)ccc4cc(S(=O)(=O)Nc5ccon5)ccc43)cc2F)c1 [Example 710, 1-(2,3′-difluoro-5,5′-dimethoxy-4-biphenylyl)-N-3-isoxazolyl-2-oxo-1,2-dihydro-6-quinolinesulfonamide] |
| 732 nM | O=c1ccc2cc(S(=O)(=O)Nc3ccon3)ccc2n1-c1ccc(-c2cccc(C(F)(F)F)c2)cc1 [Example 591, N-3-isoxazolyl-2-oxo-1-(3′-(trifluoromethyl)-4-biphenylyl)-1,2-dihydro-6-quinolinesulfonamide] |
| 100 nM | COc1cc(-c2ccc(F)c(F)c2)ccc1-n1c(=O)ccc2cc(S(=O)(=O)Nc3ncccn3)ccc21 [Example 897, 1-(3′,4′-difluoro-3-methoxy-4-biphenylyl)-2-oxo-N-2-pyrimidinyl-1,2-dihydro-6-quinolinesulfonamide] |
| 51 nM | COc1cc(-c2ccc(Cl)c(C#N)c2)c(F)cc1-n1c(=O)ccc2cc(S(=O)(=O)Nc3ccnc(C)n3)ccc21 [Example 892, 1-(4′-chloro-3′-cyano-2-fluoro-5-methoxy-4-biphenylyl)-N-(2-methyl-4-pyrimidinyl)-2-oxo-1,2-dihydro-6-quinolinesulfonamide] |
| 26 nM | COc1cc(-c2ccccc2C)c(F)cc1-n1c(=O)ccc2cc(S(=O)(=O)Nc3ccon3)ccc21 [Example 953, 1-(2-fluoro-5-methoxy-2′-methyl-4-biphenylyl)-N-3-isoxazolyl-2-oxo-1,2-dihydro-6-quinolinesulfonamide] |
| 118 nM | COc1ccc(-c2cccc(F)c2F)cc1-n1c(=O)ccc2cc(S(=O)(=O)Nc3ccon3)ccc21 [Example 848, 1-(2′,3′-difluoro-4-methoxy-3-biphenylyl)-N-3-isoxazolyl-2-oxo-1,2-dihydro-6-quinolinesulfonamide] |
| 22 nM | COc1ccc(-c2cc(OC)c(-n3c(=O)ccc4cc(S(=O)(=O)Nc5ccon5)ccc43)cc2F)c(F)c1 [Example 702, 1-(2,2′-difluoro-4′,5-dimethoxy-4-biphenylyl)-N-3-isoxazolyl-2-oxo-1,2-dihydro-6-quinolinesulfonamide] |
| 1240 nM | COc1cc(-c2cccc(C(F)(F)F)c2)ccc1-n1c(=O)ccc2cc(S(=O)(=O)Nc3cnc(C)cn3)ccc21 [Example 949, 1-(3-methoxy-3′-(trifluoromethyl)-4-biphenylyl)-N-(5-methyl-2-pyrazinyl)-2-oxo-1,2-dihydro-6-quinolinesulfonamide] |

Same assay, conditions: in-vitro Nav 1.7 PX data (PatchXpress)

| IC50 | SMILES |
| --- | --- |
| 6 nM | COc1cc(-c2cc(Cl)ccc2C)ccc1-n1c(=O)ccc2cc(S(=O)(=O)Nc3ncco3)ccc21 [Example 1067, 1-(5′-chloro-3-methoxy-2′-methyl-4-biphenylyl)-N-1,3-oxazol-2-yl-2-oxo-1,2-dihydro-6-quinolinesulfonamide] |

Same assay, conditions: in-vitro Nav 1.7 PX data, Table 4

| IC50 | SMILES |
| --- | --- |
| 20 nM | COc1cc(-c2cnc(OC)c(Cl)c2)c(F)cc1-n1c(=O)ccc2cc(S(=O)(=O)Nc3ccc(F)cn3)ccc21 (atropisomer, axis not shown; (P)) [Example 1161, (P)-1-(4-(5-chloro-6-methoxy-3-pyridinyl)-5-fluoro-2-methoxyphenyl)-N-(5-fluoro-2-pyridinyl)-2-oxo-1,2-dihydro-6-quinolinesulfonamide] |

Same assay, conditions: in-vitro PatchXpress (PX)

| IC50 | SMILES |
| --- | --- |
| 1010 nM | COc1cc(-c2cc(C)cc(Cl)c2)c(F)cc1-n1c(=O)ccc2cc(S(=O)(=O)Nc3ccon3)ccc21 (atropisomer, axis not shown; (M)) [Example 507, (M)-1-(3′-chloro-2-fluoro-5-methoxy-5′-methyl-4-biphenylyl)-N-3-isoxazolyl-2-oxo-1,2-dihydro-6-quinolinesulfonamide] |
